Results reported in paper PMC5012913 (Analytical biochemistry, 2016).
≈ marks a conversion by molar mass, not a printed value. Entries after “also recorded” stand apart in the source; their conditions may differ. Like-named read-outs stand apart in the source and are kept apart here.

Assays:
[1] = test system: WecA; settings: cited from earlier work
[2] = molecular target: WecA enzyme (P-60 from E. coli B21WecA) (Escherichia coli, UniProt P0AC78); assay: biochemical; type: biochemical
[3] = molecular target: M. smegmatis WecA (P-60) (Mycolicibacterium smegmatis, UniProt A0R211); assay: Kinetic parameter evaluation via WecA activity assay; type: biochemical; settings: for Vmax for C50-P-P-Glucosamine-C6-FITC synthesis: crude membrane P-60, Michaelis-Menten plot
[4] = molecular target: T1, M. smegmatis WecA (Mycolicibacterium smegmatis, UniProt A0R211); type: biochemical
T1 sequence (A0R211 1-406): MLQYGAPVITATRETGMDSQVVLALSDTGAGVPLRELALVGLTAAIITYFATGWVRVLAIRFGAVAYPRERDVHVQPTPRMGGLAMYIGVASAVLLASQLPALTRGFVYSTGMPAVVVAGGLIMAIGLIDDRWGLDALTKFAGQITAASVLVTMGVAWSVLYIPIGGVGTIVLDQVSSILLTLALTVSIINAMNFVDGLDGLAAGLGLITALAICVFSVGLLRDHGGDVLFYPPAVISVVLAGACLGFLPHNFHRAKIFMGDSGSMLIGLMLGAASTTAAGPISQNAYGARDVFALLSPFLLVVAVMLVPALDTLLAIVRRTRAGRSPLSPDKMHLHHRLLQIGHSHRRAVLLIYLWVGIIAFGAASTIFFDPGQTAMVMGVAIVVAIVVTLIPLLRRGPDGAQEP

[5] = test system: M. tuberculosis; assay: MIC determination against replicating Mtb; type: cell-based, Mycobacterium tuberculosis (H37Rv); settings: aerobic
[6] = test system: non-replicating Mtb H37Rv (pFCA-luxAB); type: cell-based, M. tuberculosis H37Rv; settings: for MICLORA/MICMABA: ratio of LORA MIC to MABA MIC
[7] = test system: non-replicating Mtb; assay: Wayne model under low-oxygen conditions; type: cell-based
[8] = test system: intracellular Mtb CDC1551-tdTomato in J774A.1 cells; assay: Killing effect against intracellular M. tuberculosis in J774A.1 macrophages; type: cell-based
[9] = molecular target: T2, MurX (Mycolicibacterium smegmatis, UniProt A0R019); settings: cited from earlier work
T2 sequence (A0R019 1-359): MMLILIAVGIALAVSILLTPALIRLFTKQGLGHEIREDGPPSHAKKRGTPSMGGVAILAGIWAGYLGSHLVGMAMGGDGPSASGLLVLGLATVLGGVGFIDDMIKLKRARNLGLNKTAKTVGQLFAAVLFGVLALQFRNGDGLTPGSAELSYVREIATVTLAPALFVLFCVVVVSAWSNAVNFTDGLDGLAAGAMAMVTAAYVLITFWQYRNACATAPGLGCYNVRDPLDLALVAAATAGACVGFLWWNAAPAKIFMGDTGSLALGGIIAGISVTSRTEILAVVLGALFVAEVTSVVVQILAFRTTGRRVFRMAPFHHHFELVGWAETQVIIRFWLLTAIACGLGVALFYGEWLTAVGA

In the case of CCCCc1ccc(NC(=O)C2=CCN(C)[C@@H]([C@H](O[C@@H]3O[C@H](CN)[C@@H](O)[C@H]3O)[C@H]3O[C@@H](n4ccc(=O)[nH]c4=O)[C@H](O)[C@@H]3O)C(=O)N2C)cc1 [CPZEN-45], the “WecA inhibition” value [1] is listed as “inhibit WecA at low concentrations”.
For CO[C@H]1[C@@H](O)[C@H](n2ccc(=O)[nH]c2=O)O[C@@H]1[C@@H](O[C@H]1OC(C(=O)N[C@H]2CCCCNC2=O)=C[C@H](O)[C@@H]1O)C(N)=O [Capuramycin (6), Capuramycin], the “WecA enzyme inhibitory activity” value ([2]; at 20 µg/mL) was “no WecA enzyme inhibitory activity”, the inhibition at 0.02 µg/mL ([2]; read-out: WecA inhibition (%)) was 0% and the inhibition at 2 µg/mL ([2]; read-out: WecA inhibition (%)) was 0%. It also gave an inhibition at 20 µg/mL ([2]; read-out: WecA inhibition (%)) of 0%.
For CCCCCCCCCC(=O)O[C@@H]1[C@H](OC)[C@@H]([C@@H](O[C@H]2OC(C(=O)N[C@H]3CCC[C@@H](C)NC3=O)=C[C@H](O)[C@@H]2O)C(N)=O)O[C@H]1n1ccc(=O)[nH]c1=O [SQ641 (8)], the “WecA enzyme inhibitory activity” value [2] was “no WecA enzyme inhibitory activity”.
CC(=O)N[C@H]1[C@@H](OP(=O)(O)OP(=O)(O)OC[C@H]2O[C@@H](n3ccc(=O)[nH]c3=O)[C@H](O)[C@@H]2O)O[C@H](CO)[C@@H](O)[C@@H]1O [UDP-GlcNAc] showed a Km ([3]; 140 µM exogenous decaprenyl phosphate (C50-P)) of 110 µM.
For COC1C(C(OC2OC(C(=O)NC3CCCCNC3=O)=CC(O)C2O)C(N)=O)OC(n2ccc(=O)[nH]c2=O)C1OC (centres unmarked) [UT-01320 (12)], the “WecA enzyme inhibitory activity” value [2] was “inhibited completely”, the “WecA inhibition (%) obtained via HPLC” value [2] was 100 (100) % and the “IC50 against M. smegmatis wecA” value [4] was 0.0507 mg/L (≈ 0.0869 µM). The “MIC (MABA), replicating Mtb” value [5] was 1.5 mg/L (≈ 2.57 µM), the “MIC (LORA), non-replicating Mtb” value ([6]; low-oxygen conditions) was 2.58 mg/L (≈ 4.42 µM) and the MICLORA/MICMABA [6] was 1.72. The “Effectiveness in non-replicating Mtb (Wayne model)” value [7] was “confirmed”, the “Bactericidal effect against intracellular Mtb (words, comparison with TB drugs)” value ([8]; 2x and 4x MIC, up to 72h, J774A.1, listed as 12) was “equal to those of capreomycin; also recorded: faster killing effect than rifampicin” and the “Time to kill Mtb in infected macrophages” value ([8]; x2 MICLORA, […]) was no more than 72 h. The “MurX enzyme inhibitory activity” value ([9]; even at 400 µg/mL, as previously reported) was “did not exhibit MurX enzyme inhibitory activity”.
CO[C@H]1/C=C/O[C@@]2(C)Oc3c(C)c(O)c4c(O)c(c(/C=N/N5CCN(C)CC5)c(O)c4c3C2=O)NC(=O)/C(C)=C\C=C\[C@H](C)[C@H](O)[C@@H](C)[C@@H](O)[C@@H](C)[C@H](OC(C)=O)[C@@H]1C [rifampicin, reference compound] showed an MICLORA/MICMABA [6] of 7.35.
With “Decaprenyl-P-P-Glucosamine-C6-FITC [C50-P-P-Glucosamine-C6-FITC (3)]” the “Vmax for C50-P-P-Glucosamine-C6-FITC synthesis” value [3] was 0.404 µM/min and the “Vmax for C50-P-P-Glucosamine-C6-FITC synthesis” value ([3]; listed as C50-P-P-Glucosamine-C6-FITC) was 0.4041 µM/min.
For “Tunicamycin [Tunicamycin (5), reference compound]”, the “IC50 against M. smegmatis wecA” value ([4]; UV-Vis dose-response curve) is given as 0.59 mg/L and the “IC50 against MurX” value [9] is given as 2.31 mg/L.
“UDP-Glucosamine-C6-FITC [UDP-Glucosamine-C6-FITC (1)]” showed a Km ([3]; with undecaprenyl phosphate) of 196 µM.
